# Laboratory results: patent US6492167B2, “Ubiquitous potassium-channel proteins and their genes” (JCR Pharmaceuticals Co., Ltd., priority 1995, dated 2002)
# Legend:
# ruKATP-1 [1] = target: T1, ruKATP-1 (Rattus norvegicus, UniProt Q63664); experiment: Single-channel analysis of HEK 239 cells having ruKATP-1 expressed (inside-out mode); type: cell-based; conditions: for uKATP-1 channel activity (state of channel): inside-out mode
# T1 construct: The expression plasmid (pCMV6b) carrying a full-length ruKATP-1 coding cDNA was transfected into HEK 239 cells; expressed in transfected cells; host or cells: HEK 239 (sic) cells, plasmid pCMV6b, Lipofectamine
# T1 sequence (Q63664 1-424): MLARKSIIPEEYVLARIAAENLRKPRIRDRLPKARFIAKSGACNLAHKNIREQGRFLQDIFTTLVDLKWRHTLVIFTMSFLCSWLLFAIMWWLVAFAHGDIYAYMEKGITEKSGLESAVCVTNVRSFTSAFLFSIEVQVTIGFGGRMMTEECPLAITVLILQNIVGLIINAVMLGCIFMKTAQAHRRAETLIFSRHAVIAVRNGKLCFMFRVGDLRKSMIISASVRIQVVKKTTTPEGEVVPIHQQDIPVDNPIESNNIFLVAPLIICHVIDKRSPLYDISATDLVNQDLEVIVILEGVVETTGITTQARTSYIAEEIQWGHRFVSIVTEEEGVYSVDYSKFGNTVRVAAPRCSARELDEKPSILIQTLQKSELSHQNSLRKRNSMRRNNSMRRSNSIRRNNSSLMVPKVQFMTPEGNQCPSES
# Procedure: […] cells were cultured in minimum essential Eagle's medium supplemented with 10% of horse serum. The expression plasmid (pCMV6b) carrying a full-length ruKATP-1 coding cDNA was transfected into […] cells with use of Lipofectamine to prepare transformed HEK 293 cells. The transformed cells produced in this. manner were subjected to single channel analysis, with the results being shown in FIGS. 8A and 8B.
# FIG. 7 illustrates effects of ATP on the uKATP-1 channel activity as observed in the inside-out mode.
# ruKATP-1 [2] = target: T1, ruKATP-1; experiment: Electrophysiological analysis of Xenopus oocytes injected with ruKATP-1 cRNA; type: cell-based
# Procedure: A 20 ng quantity of cRNA synthesized in vitro from plasmid pGEM11Z containing a full-length ruKATP-1 cDNA with the RNA polymerase after being linearized through treatment with a restriction enzyme Not1 was injected into Xenopus oocytes, followed by electrophysiological analysis 2 or 3 days later. (see FIG. 7). As is illustrated in FIGS. 7A and 7B, there was observed a K^+ electric current showing weak inward rectification. The K^+ electric current was suppressed by adding Ba^2+ in the exracellular fluid.
smiles,measurement,setting,value
Nc1ncnc2c1ncn2[C@@H]1O[C@H](COP(=O)(O)OP(=O)(O)OP(=O)(O)O)[C@@H](O)[C@H]1O [ATP],uKATP-1 channel activity (state of channel),ruKATP-1 [1]; 1 μM of ATP added inside the cellular membrane,open
same,uKATP-1 channel activity (state of channel),ruKATP-1 [1]; addition of ATP,closed completely
[Ba+2] [Ba^2+],inward rectification (inward current) of oocytes injected with ruKATP-1 cRNA,"ruKATP-1 [2]; 300 μM Ba2+ added to the extracellular fluid, 45 mM [K+] extracellular fluid",blocked
same,K+ electric current showing weak inward rectification,"ruKATP-1 [2]; Ba2+ added in the extracellular fluid, concentration not given",suppressed
[Mg+2] [Mg^2+],outward electric current flowing through the channel,"ruKATP-1 [1]; intracellular Mg2+, transformed HEK cells",suppressed
